The record followed here is ChEMBL document CHEMBL1255312, “Activity of daptomycin against Listeria monocytogenes isolates from cerebrospinal fluid” (Antimicrob Agents Chemother, 2008).

≈ marks a conversion by molar mass, not a printed value.

Data set [1] has as its system Staphylococcus aureus. As to the kind of experiment: Antimicrobial activity against methicillin-susceptible Staphylococcus aureus infected in experimental rabbit meningitis model. Type of data set: functional.
The subject of another data set is Streptococcus pneumoniae. Briefly: Antimicrobial activity against penicillin-, quinolone-resistant Streptococcus pneumoniae WB4 infected in experimental rabbit meningitis model. Type of data set: functional.
Data set [2] relates to Staphylococcus aureus. Briefly: Antimicrobial activity against Staphylococcus aureus infected in hydrocephalic rabbit administered intraventricularly as single dose. The following applies: Cardiac ventricle.
The subject of a further data set is Homo sapiens. As to the kind of experiment: Plasma concentration in healthy human at 4 mg/kg, iv QD. In kind it is ADME, organism-based. Details: dose 4 mg/kg, route intravenous. The following applies: in vivo.
Data set [3] deals with Listeria monocytogenes. Briefly: Antimicrobial activity against Listeria monocytogenes isolated from cerebrospinal fluid of meningitis patient by broth dilution method. In kind it is functional.
Data set [4] relates to Listeria monocytogenes. As to the kind of experiment: Antimicrobial activity against Listeria monocytogenes isolated from cerebrospinal fluid of meningitis patient by Etest method. Type of data set: functional.

For the molecule `CCCCCCCCCC(=O)N[C@@H](Cc1c[nH]c2ccccc12)C(=O)N[C@H](CC(N)=O)C(=O)N[C@@H](CC(=O)O)C(=O)N[C@@H]1C(=O)NCC(=O)N[C@@H](CCCN)C(=O)N[C@@H](CC(=O)O)C(=O)N[C@H](C)C(=O)N[C@@H](CC(=O)O)C(=O)NCC(=O)N[C@H](CO)C(=O)N[C@@H]([C@H](C)CC(=O)O)C(=O)N[C@@H](CC(=O)c2ccccc2N)C(=O)O[C@@H]1C`, the MIC against Staphylococcus aureus [1] was found to be 1 µg/mL (≈ 0.617 µM); against Streptococcus pneumoniae it was 0.06 µg/mL (≈ 0.037 µM); in the data set on Staphylococcus aureus [2] it was 0.25 µg/mL (≈ 0.154 µM). In the data set with Homo sapiens, the Cp was 60 µg/mL. Further, the MIC90 in the data set with Listeria monocytogenes [3] and in the data set with Listeria monocytogenes [4] was 4 µg/mL (≈ 2.47 µM) each time. For the same molecule, the MIC95 with Listeria monocytogenes [4] is 1 µg/mL (≈ 0.617 µM).
